Active and inactive are the calls of the source. The calls are words filed in the database; no cut-off is given here.
What was measured:
Assay type in all cases: cell-based
Conditions in all cases: Hepatocyte
[1] = biological target: T1, Equilibrative nucleoside transporter 2 (Rattus norvegicus) (UniProt O54699); test: Transport through ENT2 in rat hepatocytes by oil filtration assay in presence of sodium ions in Kreb-henseleit buffer
T1 sequence (whole entry): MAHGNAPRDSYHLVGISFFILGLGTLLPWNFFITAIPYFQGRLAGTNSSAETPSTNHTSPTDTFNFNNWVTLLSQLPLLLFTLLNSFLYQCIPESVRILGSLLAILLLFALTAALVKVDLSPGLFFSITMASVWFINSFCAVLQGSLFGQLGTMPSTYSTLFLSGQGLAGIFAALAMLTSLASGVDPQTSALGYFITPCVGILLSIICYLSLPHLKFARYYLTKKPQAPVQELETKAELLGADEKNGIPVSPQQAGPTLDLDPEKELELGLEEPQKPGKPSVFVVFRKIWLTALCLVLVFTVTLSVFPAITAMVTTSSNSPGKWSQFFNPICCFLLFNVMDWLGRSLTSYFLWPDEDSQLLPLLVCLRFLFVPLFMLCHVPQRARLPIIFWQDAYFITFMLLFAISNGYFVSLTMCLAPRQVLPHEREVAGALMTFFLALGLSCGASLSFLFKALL

[2] = biological target: T2, Sodium/nucleoside cotransporter 2 (Rattus norvegicus) (UniProt Q62773); test: Transport through CNT2 in rat hepatocytes by oil filtration assay in presence of sodium ions in Kreb-henseleit buffer containing 100 uM NBMPR and 1 mM inosine
T2 sequence (whole entry): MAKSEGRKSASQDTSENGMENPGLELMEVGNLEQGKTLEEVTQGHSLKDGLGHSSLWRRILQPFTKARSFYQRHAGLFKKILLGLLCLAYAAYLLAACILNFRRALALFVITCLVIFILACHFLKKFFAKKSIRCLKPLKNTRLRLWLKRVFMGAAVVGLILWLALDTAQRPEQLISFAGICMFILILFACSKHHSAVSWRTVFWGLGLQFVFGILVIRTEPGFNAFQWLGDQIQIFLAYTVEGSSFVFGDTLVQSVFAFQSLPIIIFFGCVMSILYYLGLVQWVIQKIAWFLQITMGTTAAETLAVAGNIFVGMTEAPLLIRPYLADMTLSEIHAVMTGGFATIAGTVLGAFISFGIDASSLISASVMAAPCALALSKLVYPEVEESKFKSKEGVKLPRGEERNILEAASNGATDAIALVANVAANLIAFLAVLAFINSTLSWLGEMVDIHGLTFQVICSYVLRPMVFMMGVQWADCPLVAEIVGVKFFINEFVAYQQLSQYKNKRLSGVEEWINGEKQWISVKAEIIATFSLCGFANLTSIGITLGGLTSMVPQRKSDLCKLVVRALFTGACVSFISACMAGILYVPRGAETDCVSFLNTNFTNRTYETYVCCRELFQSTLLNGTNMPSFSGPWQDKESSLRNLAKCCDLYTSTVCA

[3] = biological target: T3, Equilibrative nucleoside transporter 1 (Rattus norvegicus) (UniProt O54698); test: Transport through ENT1 in rat hepatocytes by oil filtration assay in presence of sodium ions in Kreb-henseleit buffer containing 100 uM NBMPR
T3 sequence (whole entry): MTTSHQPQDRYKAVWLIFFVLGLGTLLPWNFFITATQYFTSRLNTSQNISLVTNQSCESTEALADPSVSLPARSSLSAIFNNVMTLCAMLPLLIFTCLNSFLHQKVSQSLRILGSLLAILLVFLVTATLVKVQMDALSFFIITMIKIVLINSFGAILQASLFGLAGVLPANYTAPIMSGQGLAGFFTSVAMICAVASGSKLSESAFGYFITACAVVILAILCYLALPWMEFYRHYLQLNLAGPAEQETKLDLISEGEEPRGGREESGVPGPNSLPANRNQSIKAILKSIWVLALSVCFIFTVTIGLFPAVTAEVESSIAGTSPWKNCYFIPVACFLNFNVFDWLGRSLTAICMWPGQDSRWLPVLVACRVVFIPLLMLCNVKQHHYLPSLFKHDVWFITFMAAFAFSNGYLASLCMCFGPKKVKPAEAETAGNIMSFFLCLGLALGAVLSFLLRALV

[4] = biological target: T3, Equilibrative nucleoside transporter 1 (Rattus norvegicus); test: Transport through ENT1 in rat hepatocytes by oil filtration assay in presence of sodium ions in Kreb-henseleit buffer
[5] = biological target: T4, Equilibrative nucleoside transporter 1 (Mus musculus) (UniProt Q9JIM1); test: Transport through ENT1 in mouse hepatocytes by oil filtration assay in presence 100 nM of transporter inhibitor NBMRP
T4 sequence (whole entry): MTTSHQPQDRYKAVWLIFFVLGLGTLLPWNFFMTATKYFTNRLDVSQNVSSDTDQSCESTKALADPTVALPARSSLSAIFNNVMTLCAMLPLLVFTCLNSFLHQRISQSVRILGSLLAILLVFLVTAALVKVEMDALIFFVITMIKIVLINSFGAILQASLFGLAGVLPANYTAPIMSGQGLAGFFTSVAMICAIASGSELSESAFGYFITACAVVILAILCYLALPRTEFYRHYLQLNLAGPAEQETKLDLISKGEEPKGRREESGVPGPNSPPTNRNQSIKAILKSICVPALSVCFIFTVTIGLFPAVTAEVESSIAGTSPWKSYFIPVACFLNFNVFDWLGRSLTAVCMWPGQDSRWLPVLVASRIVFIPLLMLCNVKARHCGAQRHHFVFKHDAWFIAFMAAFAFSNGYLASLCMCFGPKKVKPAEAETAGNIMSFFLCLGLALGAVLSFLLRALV

[6] = biological target: T5, Equilibrative nucleoside transporter 2 (Mus musculus) (UniProt Q61672); test: Transport through ENT2 in mouse hepatocytes by oil filtration assay in presence 100 uM of transporter inhibitor NBMRP
T5 sequence (whole entry): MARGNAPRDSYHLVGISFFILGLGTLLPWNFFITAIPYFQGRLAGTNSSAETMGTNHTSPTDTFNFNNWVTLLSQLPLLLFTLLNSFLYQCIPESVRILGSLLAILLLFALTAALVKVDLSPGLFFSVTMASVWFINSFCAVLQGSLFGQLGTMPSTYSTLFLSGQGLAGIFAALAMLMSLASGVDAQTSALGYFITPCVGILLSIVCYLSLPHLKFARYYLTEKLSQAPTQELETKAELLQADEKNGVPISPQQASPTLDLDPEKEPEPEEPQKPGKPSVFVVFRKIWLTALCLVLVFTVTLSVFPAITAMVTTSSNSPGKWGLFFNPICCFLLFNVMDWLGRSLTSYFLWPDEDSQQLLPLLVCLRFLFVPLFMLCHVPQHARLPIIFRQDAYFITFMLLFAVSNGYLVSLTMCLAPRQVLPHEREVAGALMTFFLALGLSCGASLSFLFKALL

`Nc1ncnc2c1ncn2[C@@H]1O[C@H](CO)[C@@H](O)[C@H]1O` was tested, and the Activity [1] was “Active”, the Activity [2] was “inactive” and the Activity [3] was “Active”. For the same compound, the Activity [4] was “inactive”, the Activity [5] was “inactive” and the Activity [6] was “inactive”.

In the case of `NC(=O)c1ncn([C@@H]2O[C@H](CO)[C@@H](O)[C@H]2O)n1`, the Activity [1] is reported as “Active”, the Activity [2] is reported as “inactive” and the Activity [3] is reported as “Active”. The Activity [4] was “inactive”, the Activity [5] was “inactive” and the Activity [6] was “inactive”.
